Values joined by “and” are separate entries in the source; they are usually repeats but may differ in a detail not shown here. Identical values can stand only once.
Assays:
[1] = molecular target: recombinant HIV-RT (Human immunodeficiency virus type 1 group M subtype B, UniProt P04585); experiment: Test I (HIVRT (rAdt)), direct inhibition of recombinant HIV-RT; type: biochemical
Experimental: The compounds were tested for direct inhibitory activity on HIV-RT in a volume of […] recombinant HIV-RT (diluted in virus disruption buffer to give 200.000 cpm).
100 mM Tris-HCl pH 7.6, 100 mM KCl, 4 mM MgCl2, 4 mM DTT, 275 mg/ml BSA, 0.5 mg (rA)n(dT)12-18 and 0.3 mM ^3H- dTTP (specific activity […]). After 60 minutess of incubation 40 ml in duplicate were spotted on paper discs and washed in 5% TCA. After rinsing the paper discs in ethanol they were dried and counted in scintillation fluid.

[2] = tested on: HIV-1; experiment: Test E (HIV-1 RT), RT activity in supernatant of infected MT-4/H9 cells; type: cell-based; conditions: Human immunodeficiency virus 1, H9, Test E
Experimental: (§1) Tests E, F, G, H (HIV-IRT, HIV-2RT, SIVRT, no virus)
(§2) MT-4/H9-cells are adjusted to 2x10^5 cells/ml medium (RPMI 1640, 5% FCS, penicillin/streptomycin) and seeded into microplates (96 wells/plate) […] cell suspension/well giving 2 x 10^4 cells/well. The compound to be tested is made 10 mg/ml in DMSO = stock solution (stored at -20°C). The compound dissolved in DMSO is diluted 25 times in medium to give 400 mg/ml. Further dilutions to 40 mg/ml and 4 mg/ml are made in microplates.
(§3) 50 µl of the dilutions 400 mg/ml, 40 mg/ml and 4mg/ml are transferred to the "cell-containing" microplate with a multichannel pipette. […]
(§4) Finally 50 µl of virus suspension is added to each well (with a repetitive "Eppendorf multipett"). [Test E-HIV-1; Test F-HIV-2; Test G-SIV; Test H-no virus].
(§5) Each plate has at least four wells with virus but no drug (virus control) and two wells without virus (medium control). The plate is put into a plastic bag to avoid evaporation and incubated for six days in CO2-atmosphere. 10 µl supernatant from each well is transferred with a multichannel pipette into a new microplate to which 40 ml VDB, (50 mM Tris-HCl pH = 7.6, 35 mM KCl, 4 mM DTT, 1 mM EDTA, 1.3% Triton X-100), have been added to each well. The addition of 50 ml RT-reaction mix, (10 ml culture supernatant, 40 ml VDB and 50 ml reaction mixture giving a final concentration of: 100 mM Tris-HCl pH = 7.6, 100 mM KCl, 4 mM MgCl2, 4 mM DTT, 275 mg/ml BSA/ml, 5 mg (rA)n(dT)12-18/ml and 0.3 mM ^3H dTTP (specific activity 18.000 cpm/pmol)) gives a final volume of […]/well. After 60 minutes of incubation the whole assay volume is transferred by use of a cell harvester to a filter mat prewetted with 5% TCA. The filter is washed in 5% TCA and rinsed once in ethanol. After drying the filter mat at 60°C for 30 min. each filter (96/mat) is punched out and put into counting vials 2 ml of scintillation fluid is added and the samples are counted (1 min) or the whole filter mat is put into a plastic bag, 10 ml of scintillation fluid is added and the filter mat is counted in a Beckman Betaplate counter. Percent reduction of RT activity is determined by comparing RT activity for virus control with the RT activity measured for each dilution of the compound.

[3] = tested on: HIV(II) virus; experiment: Test B (XTT), MT4 cells infected with HIV(II); type: cell-based; conditions: Human immunodeficiency virus 1, MT4, Test B
Experimental: (§6) Tests A, B, C, and D (XTT)
(§7) MT4 cells in a medium of RPMI 1640, 5% FCS, penicillin/streptomycin are adjusted to 2x10^5 cells/ml and seeded into microplates (96 wells/plate) 100 µl cell suspension/well giving 2x10^4 cells/well. The compound to be tested is made into a 10 mg/ml mixture in DMSO and stored at -20°C. The compound in DMSO is diluted with medium containing 10% DMSO in a 10-fold dilution series to give 1 mg/ml, 10 mg/ml, and […] solutions. Further dilutions to 400, 40, 4 and 0.4 mg/ml are made in medium containing microplates. Fifty µl of the 400, 40, and 4 mg/ml are transferred to the cell-containing microplates with a multi-channel pipette (final concentration: 100, 10, and 1 mg/ml). Finally, 50 µl of virus suspension is added to each well (with a repetitive "Eppendorf" multipipett). Each plate has at least six wells with the following: [Test A: HIV virus; Test B: HIV(II) virus; Test C: SIV virus; Test D: No virus]; with no drug (virus control) and six wells without virus (medium control). The plate is put into a plastic bag and incubated for six days in CO2 atmosphere. To each well in the plate is added 50 µl of XTT ((2,3-bis[2-methoxy-4-nitro-5-sulfophenyl]-5-[(phenylamino)carbonyl]-2H-tetrazolium hydroxide), (1 mg/ml 0.01-0.02 mM N-metyl-phenazonium methosulfate). After six hours of incubation in CO2 atmosphere the plates are covered with adhesive plate sealers and gently mixed on a vortex. Optical densities are determined at a wavelength of 450 nm and a reference wavelength of 650 nm. The percent reduction of cytotoxocity caused by the virus infection is calculated as follows: (OD450 compound - OD450 inf cells)/(OD450 uninf cells - OD450 inf cells)x 100 [formula]

[4] = tested on: HIV-2; experiment: Test F (HIV-2 RT), RT activity in supernatant of infected MT-4/H9 cells; type: cell-based; conditions: Human immunodeficiency virus 2, H9, Test F
Experimental: as §1, §2, §3, §4, §5

[5] = tested on: HIV virus; experiment: Test A (XTT), MT4 cells infected with HIV; type: cell-based; conditions: for inhibition at 1 µg/mL / inhibition at 10 µg/mL / inhibition at 100 µg/mL: Human immunodeficiency virus 1, MT4, Test A; for % inhibition: Test A
Experimental: as §6, §7

[6] = tested on: SIV; experiment: Test G (SIV RT), RT activity in supernatant of infected MT-4/H9 cells; type: cell-based; conditions: Simian immunodeficiency virus
Experimental: as §1, §2
50 µl of the dilutions 400 mg/ml, 40 mg/ml and 4mg/ml are transferred to the "cell-containing" microplate with a multichannel pipette. (Final concentration: 100, 10 and 1 mg/ml).
as §4, §5

[7] = tested on: SIV virus; experiment: Test C (XTT), MT4 cells infected with SIV; type: cell-based; conditions: Simian immunodeficiency virus, MT4, Test C
Experimental: as §6, §7

[8] = titration pKa (66% DMF/H2O)
[9] = tested on: MT4 cells; experiment: Test D (XTT), MT4 cells, no virus; type: cell-based; conditions: Homo sapiens
Experimental: as §6, §7

[10] = tested on: HIV-1; experiment: combination with AZT against HIV-1 in CEM cells, technique of Prichard and Shipman; type: cell-based; conditions: combination of AZT and the compound
Experimental: The combination was evaluated against HIV-1 in CEM cells using the technique of Prichard and Shipman (Antiviral Research, 14, 181-206 (1990)).

[11] = physchem; conditions: 66% dmf/h2o

## S=C(NCCc1ccccc1)Nc1nc2c(Cl)cccc2s1
[1]
  inhibition at 0.1 µg/mL: 9%
  inhibition at 1 µg/mL: 6%
  inhibition at 10 µg/mL: 1%
[2]
  inhibition at 1 µg/mL: 11%
  inhibition at 10 µg/mL: 8%
  inhibition at 100 µg/mL: 97%
[3]
  inhibition at 0.1 µg/mL: 18%
  inhibition at 1 µg/mL: 22%
  inhibition at 10 µg/mL: 100%
  inhibition at 100 µg/mL: 36%
[4]
  inhibition at 0.1 µg/mL: 1%
  inhibition at 1 µg/mL: 6%
  inhibition at 10 µg/mL: 72%
  inhibition at 100 µg/mL: 93%
[5]
  inhibition at 1 µg/mL: 4%
[5]; 10 µg/ml
  inhibition at 10 µg/mL: 19%
[5]; 100 µg/ml
  inhibition at 100 µg/mL: 100%
[6]
  inhibition at 1 µg/mL: 1%
  inhibition at 10 µg/mL: 1%
  inhibition at 100 µg/mL: 87%
[7]
  inhibition at 1 µg/mL: 0%
  inhibition at 10 µg/mL: 2%
  inhibition at 100 µg/mL: 17%

## S=C(NCCC1=CCCCC1)Nc1ccc(Cl)nn1 [Example 336, N-[2-(1-cyclohexenyl)ethyl]-N'-[3-(6-chloro)pyridazinyl]thiourea]
[8]; pKa, 66% DMF
  pKa: 12.8

## Fc1cccc(F)c1CCNC(=S)Nc1ccc(Cl)nn1 [Example 337, N-[2-(2,6-difluorophenyl)ethyl]-N'-[3-(6-chloro)pyridazinyl] thiourea]
[8]; pKa, 66% DMF
  pKa: 12.7

## S=C(NCCc1ccccc1)Nc1nc2ccc(Cl)cc2s1
[1]
  inhibition at 0.1 µg/mL: 12%
  inhibition at 1 µg/mL: 18%
  inhibition at 10 µg/mL: 18%
[2]
  inhibition at 1 µg/mL: 1%
  inhibition at 10 µg/mL: 51%
  inhibition at 100 µg/mL: 96%
[3]
  inhibition at 0.1 µg/mL: 24%
  inhibition at 1 µg/mL: 9%
  inhibition at 10 µg/mL: 67%
  inhibition at 100 µg/mL: 27%
[4]
  inhibition at 1 µg/mL: 1%
  inhibition at 10 µg/mL: 79%
  inhibition at 100 µg/mL: 98%
[5]
  inhibition at 1 µg/mL: 0%
[5]; 10 µg/ml
  inhibition at 10 µg/mL: 63%
  % inhibition: 67%
[5]; 100 µg/ml
  inhibition at 100 µg/mL: 68%
  % inhibition: 49%
[6]
  inhibition at 1 µg/mL: 1%
  inhibition at 10 µg/mL: 12%
  inhibition at 100 µg/mL: 90%
[7]
  inhibition at 1 µg/mL: 0%
  inhibition at 10 µg/mL: 0%
  inhibition at 100 µg/mL: 21%

## Fc1ccc2nc(NC(=S)NCCc3ccccc3)sc2c1
[1]
  inhibition at 0.1 µg/mL: 33%
  inhibition at 1 µg/mL: 38%
  inhibition at 10 µg/mL: 39%
[2]; 0.1 µg/ml
  inhibition at 0.1 µg/mL: 1%
[2]
  inhibition at 1 µg/mL: 51%
  inhibition at 10 µg/mL: 16%
  inhibition at 100 µg/mL: 95%
[3]
  inhibition at 0.1 µg/mL: 4%
  inhibition at 1 µg/mL: 40%
  inhibition at 10 µg/mL: 12%
  inhibition at 100 µg/mL: 93%
[4]
  inhibition at 0.1 µg/mL: 4%
  inhibition at 1 µg/mL: 77%
  inhibition at 10 µg/mL: 62%
  inhibition at 100 µg/mL: 97%
[9]; 1 µg/ml
  inhibition at 1 µg/mL: 5%
[9]; 10 µg/ml
  inhibition at 10 µg/mL: 28%
[9]; 100 µg/ml
  inhibition at 100 µg/mL: 0%
[5]; 100 µg/ml
  % inhibition: 100% and 72%
[7]
  inhibition at 1 µg/mL: 2%
  inhibition at 10 µg/mL: 5%
  inhibition at 100 µg/mL: 19%

## S=C(NCCc1ccccc1)Nc1nccs1 [drawing 35]
[10]
  concentration at the peak of synergy: 0.5 µg/mL
  effect of the combination: synergistic effect

## NCCc1ncccc1F [Example 417, 2-aminoethyl-3-fluoropyridine]
[11]
  pKa: 9.56

## Cc1cn([C@H]2C[C@H](N=[N+]=[N-])[C@@H](CO)O2)c(=O)[nH]c1=O [AZT, reference compound]
[10]
  concentration at the peak of synergy: 0.005 µg/mL

## NCCc1c(F)cccc1F [Example 312, 2-(2,6-Difluorophenyl)ethylamine]
[8]
  pKa: 9.06

Reference: patent EP0540143B1, “Compounds and methods for inhibition of HIV and related viruses” (priority 1991, dated 1993)
